# Patent US11203613B2, “Peptidomimetic proteasome inhibitors” (CORNELL UNIVERSITY, priority 2017, dated 2021)
# Values joined by “and” are separate entries in the source; they are usually repeats but may differ in a detail not shown here. Equal values may be shown once. Read-outs that look alike come from different tables or passages of the source.
# Columns and labels:
# [1] = target: Human Constitutive (Hu C-20S) β5 Active Subunit (Homo sapiens, UniProt P28074); assay: IC50 determination, human constitutive 20S proteasome β5c (suc-LLVY-AMC hydrolysis); format: biochemical; settings: Table 2; several values in a cell are repeat determinations; read-out: Hu c-20S IC50
# Mtb20SOG = Mtb20SOG (Mycobacterium tuberculosis, UniProt P9WHT9); assay: biochemical
# [2] = Table 2, several values in a cell are repeat determinations
# Mtb20SOG, sequence (P9WHT9 58-291): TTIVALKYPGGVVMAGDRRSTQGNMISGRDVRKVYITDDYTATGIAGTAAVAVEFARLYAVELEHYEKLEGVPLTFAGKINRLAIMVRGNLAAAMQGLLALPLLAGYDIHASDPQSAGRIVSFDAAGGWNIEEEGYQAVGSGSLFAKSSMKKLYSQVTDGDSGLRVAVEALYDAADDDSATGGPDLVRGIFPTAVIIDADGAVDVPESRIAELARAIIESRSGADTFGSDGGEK
SMILES,IC50 [1],IC50 (Mtb20SOG; [2]),IC50 (Mtb20SOG)
CC[C@H]1CCCCN1C(=O)C[C@H](NC(=O)CCC(C)C)C(=O)N[C@@H](C)c1ncc(-c2ccc(F)cc2F)[nH]1 [CF-503213],4.49 µM and 4.43 µM,33 nM and 29 nM,
CC(C)CCC(=O)N[C@@H](CC(=O)N1CCCCCC1)C(=O)N[C@@H](C)c1nc(-c2ccc(F)cc2F)c[nH]1 [CF-503214],10.2 µM,,667 nM
C[C@H](NC(=O)[C@H](CC(=O)N1CCC[C@@H]1c1ccccc1)NC(=O)CCC(C)(C)C)c1nc2ccccc2[nH]1 [CF-503156],16.6 µM,88 nM,
CC(C)CCC(=O)N[C@@H](CC(=O)N1CCCC[C@H]1C)C(=O)N[C@@H](C)c1nc(-c2ccc(F)cc2F)c[nH]1 [CF-503199],10.5 µM,,1000 nM
CC[C@H]1CCCCN1C(=O)C[C@H](NS(=O)(=O)CCC(C)C)C(=O)N[C@@H](C)c1nc2c(F)cccc2[nH]1 [CF-503230],17.8 µM and 8.6 µM,400 nM and 520 nM,
C[C@H](NC(=O)[C@H](CC(=O)N1CCCC[C@@H]1C)NC(=O)CCC(C)(C)C)c1ncc(-c2ccc(F)cc2F)[nH]1 [CF-503158],5.3 µM and 8.5 µM,27 nM and 22 nM,
CCS(=O)(=O)N[C@@H](CC(=O)N1CCCC[C@@H]1C)C(=O)N[C@@H](C)c1ncc(-c2ccc(F)cc2F)[nH]1 [CF-503144],28.2 µM,1900 nM,
CC(C)CCC(=O)N[C@@H](CC(=O)N1CCCC1)C(=O)N[C@@H](C)c1ncc(-c2ccc(F)cc2F)[nH]1 [CF-503159],10.4 µM,3470 nM,
CC[C@H]1CCCCN1C(=O)C[C@H](NC(=O)CCC(C)C)C(=O)N[C@@H](C)c1nc2ccccc2[nH]1 [CF-503216],14.8 µM and 14.5 µM,,296 nM and 333 nM
"C[C@H](NC(=O)[C@H](CC(=O)N1CCCC[C@@H]1C)NC(=O)C1CC(C)(C)C1)c1nc2c(F)cccc2[nH]1 (single isomer, unassigned) [CF-503465]",7.62 µM and 1.92 µM,25 nM and 32 nM,
C[C@H](NC(=O)[C@H](CC(=O)N1CCCC[C@@H]1C)NC(=O)CCc1ccccc1)C(=O)NCc1cccc(N)c1,0.69 µM,5 nM,
Cc1cc(C(=O)N[C@@H](CC(=O)N2CCCC[C@@H]2C)C(=O)N[C@@H](C)c2ncc(-c3ccccc3)[nH]2)no1 [CF-503102],14 µM and 10 µM,717 nM and 440 nM,
CC(C)CCC(=O)N[C@@H](CC(=O)N1CCC[C@@H]1c1ccccc1)C(=O)NC(C)c1nc2ccccc2[nH]1 (some centres unmarked) [CF-503153],19.8 µM,29 nM and 53 nM,
Cc1cc(C(=O)N[C@@H](CC(=O)N2CCC[C@@H]2c2ccccc2)C(=O)N[C@@H](C)c2ncc(Cc3ccccc3)[nH]2)no1 [CF-503134],7.4 µM and 7.6 µM,,90 nM and 57 nM
Cc1cc(C(=O)N[C@@H](CC(=O)N2CCCC[C@@H]2C)C(=O)NC(C)c2nc3ccccc3[nH]2)no1 (some centres unmarked) [drawing 395],71.6 µM,549 nM and 331 nM,
C[C@H](NC(=O)[C@H](CC(=O)N1CCCC1)NC(=O)CCC(C)(C)C)c1ncc(-c2ccc(F)cc2F)[nH]1 [CF-503160],10.3 µM,796 nM,
C[C@H](NC(=O)[C@H](CC(=O)N1CCCC[C@@H]1C)NC(=O)CCC(C)(C)C)c1nc2c(F)cccc2[nH]1 [CF-503227],4.83 µM and 6.49 µM,79 nM and 81 nM,
CC[C@H]1CCCCN1C(=O)C[C@H](NC(=O)CC1CC1)C(=O)N[C@@H](C)c1nc2c(F)cccc2[nH]1 [CF-503318],16.9 µM,,112 nM
C[C@H](NC(=O)[C@H](CC(=O)N1CCCC[C@@H]1C)NS(=O)(=O)c1ccccc1)c1ncc(-c2ccc(F)cc2F)[nH]1 [CF-503142],8.13 µM,650 nM,
C[C@H](NC(=O)[C@H](CC(=O)N1CCC[C@@H]1c1ccccc1)NC(=O)CC1CC1)c1ncc(Cc2ccccc2)[nH]1 [CF-503137],12.6 µM and 10.6 µM,,78 nM and 64 nM
Cc1cc(C(=O)NC(CC(=O)N2CCCCC2C)C(=O)NC(C)c2ncc(-c3ccccc3)[nH]2)no1 (mixture of isomers) [CF-503094],12 µM and 11 µM,,471 nM and 726 nM
C[C@H](NC(=O)[C@H](CC(=O)N1CCCC[C@@H]1C)NC(=O)C1CCC1)c1ncc(-c2ccc(F)cc2F)[nH]1 [CF-503146],2.41 µM,,163 nM
CC(C)C1CC1C(=O)N[C@@H](CC(=O)N1CCCC[C@@H]1C)C(=O)N[C@@H](C)c1nc2c(F)cccc2[nH]1 (some centres unmarked) [CF-503381],2.47 µM,41 nM and 36 nM,
CCC1CCCCN1C(=O)CC(NC(=O)C1CC1c1ccccc1)C(=O)NC(C)c1nc2c(F)cccc2[nH]1 (centres unmarked),8.14 µM,,51 nM
CC[C@H]1CCCCN1C(=O)C[C@H](NC(=O)N1CCCCC1)C(=O)N[C@@H](C)c1nc2c(F)cccc2[nH]1 [CF-503454],3 µM,765 nM,
CC(C)CCNc1nc(C(=O)N[C@@H](C)C(=O)NCc2ccc(F)cc2F)cc(N2CCCC2)n1 [CF-503175],4.59 µM and 5.46 µM,4600 nM and 5600 nM,
C[C@H](NC(=O)[C@H](CC(=O)N1CCCC[C@@H]1C)NC(=O)CCC1CC1)c1ncc(-c2ccc(F)cc2F)[nH]1 [CF-503204],11.6 µM,98 nM,
C[C@H](NC(=O)[C@H](CC(=O)N1CCCC[C@@H]1C)NCC(=O)c1ccccc1)c1ncc(-c2ccc(F)cc2F)[nH]1 [CF-503145],15.2 µM,10000 nM,

SMILES,IC50 [1],IC50 (Mtb20SOG; [2]),IC50 (Mtb20SOG)
CC(C)CCC(=O)N[C@@H](CC(=O)N1CCCC[C@@H]1C)C(=O)N[C@H](C)c1nc2ccccc2[nH]1 [CF-503192],15.6 µM,4900 nM,
CC(C)c1noc(N[C@@H](CC(=O)N2CCCC[C@@H]2C)C(=O)N[C@@H](C)c2ncc(-c3ccc(F)cc3F)[nH]2)n1 [CF-503477],2.29 µM,2050 nM,
Cc1cc(C(=O)N[C@@H](CC(=O)N2CCCC[C@@H]2C)C(=O)N[C@@H](C)c2ncc(-c3ccc(F)cc3)[nH]2)no1 [CF-503105],> 18 µM and 19 µM,,259 nM and 256 nM
CC[C@H]1CCCCN1C(=O)C[C@H](NC(=O)N(C)Cc1ccccc1)C(=O)N[C@@H](C)c1nc2c(F)cccc2[nH]1 [CF-503451],3.33 µM and 3.7 µM,,176 nM and 184 nM
CC[C@H]1CCCCN1C(=O)C[C@H](Nc1nc2ccccc2o1)C(=O)N[C@@H](C)c1nc2c(F)cccc2[nH]1 [CF-503321],4.5 µM and 5.2 µM,271 nM and 374 nM,
CC(NC(=O)C(CC(=O)N1CCCCC1C)NC(=O)N(C)Cc1ccccc1)c1nc2c(F)cccc2[nH]1 (centres unmarked) [CF-503460],17.2 µM,,272 nM
CC[C@H]1CCCCN1C(=O)C[C@H](NC(=O)C1CC(C)(C)C1)C(=O)N[C@@H](C)c1nc2c(F)cccc2[nH]1 [CF-503464],1.26 µM,,10 nM and 19 nM
CC[C@H]1CCCCN1C(=O)C[C@H](NC(=O)CCN(C)C)C(=O)N[C@@H](C)c1nc2c(F)cccc2[nH]1 [CF-503356],6.4 µM,,6400 nM
C[C@H](NC(=O)[C@H](CC(=O)N1CCC[C@@H]1c1ccccc1)Nc1nc2ccccc2o1)c1ncc(-c2ccccc2F)[nH]1 [CF-503242],16.8 µM and 20.6 µM,753 nM and 677 nM,
C[C@H](NC(=O)[C@H](CC(=O)N1CCCC[C@@H]1C)NC(=O)CC1CCOCC1)c1ncc(-c2ccc(F)cc2F)[nH]1 [CF-503139],12.8 µM and 10.3 µM,,89 nM and 148 nM
CC[C@H]1CCCCN1C(=O)C[C@H](NC(=O)NCc1ccccc1)C(=O)N[C@@H](C)c1nc2c(F)cccc2[nH]1 [CF-503304],9.36 µM and 9.4 µM,,359 nM and 327 nM
Cc1cc(C(=O)N[C@@H](CC(=O)N2CCCC2)C(=O)N[C@@H](C)c2nc(-c3ccc(F)cc3F)c[nH]2)no1 [CF-503161],16.7 µM,,3340 nM
CC[C@H]1CCCCN1C(=O)C[C@H](Nc1nc2ccccc2s1)C(=O)N[C@@H](C)c1nc2c(F)cccc2[nH]1 [CF-503445],1.19 µM,1180 nM,
C[C@H](NC(=O)N(CC(=O)N1CCCC[C@@H]1C)NC(=O)OC(C)(C)C)C(=O)NCc1ccc(F)cc1F [CF-503201],8.5 µM and > 8 µM,8400 nM and > 8000 nM,
C[C@H](NC(=O)N(CC(=O)N1CCCC[C@@H]1C)NC(=O)CCC(C)(C)C)c1ncc(-c2ccc(F)cc2F)[nH]1 [CF-503189],7.61 µM and 10.2 µM,7380 nM and 8040 nM,
CC[C@H]1CCCCN1C(=O)C[C@H](NC(=O)N(C)CC(C)C)C(=O)N[C@@H](C)c1nc2c(F)cccc2[nH]1 [CF-503457],5.03 µM,2360 nM,
C[C@H](NC(=O)[C@H](CC(=O)N1CCCC[C@@H]1C)NC(=O)CC1CCOCC1)c1ncc(Cc2ccccc2)[nH]1 [CF-503135],9.12 µM and 13.5 µM,450 nM and 386 nM,
CC(C)COC(=O)NC(CC(=O)N1CCCCC1C)C(=O)NC(C)c1nc2c(F)cccc2[nH]1 (centres unmarked) [CF-503463],2.5 µM,,1140 nM
CC(C)CS(=O)(=O)N[C@@H](CC(=O)N1CCCC[C@@H]1C)C(=O)N[C@@H](C)c1ncc(-c2ccc(F)cc2F)[nH]1 [CF-503141],4.9 µM,368 nM,
C[C@@H](NC(=O)[C@H](CC(=O)N1CCC[C@@H]1C)NC(=O)CCC(C)(C)C)c1nc2ccccc2[nH]1 [CF-503190],17.3 µM,,2660 nM
Cc1ccc(S(=O)(=O)N[C@@H](CC(=O)N2CCCC[C@@H]2C)C(=O)N[C@@H](C)c2ncc(-c3ccc(F)cc3F)[nH]2)cc1 [CF-503143],6.47 µM,,494 nM
C[C@H](NC(=O)[C@@H](N)CC(=O)N1CCC[C@@H]1c1ccccc1)c1ncc(-c2ccccc2F)[nH]1 [CF-503240],94 µM,8500 nM,
CC(C)CCC(=O)N[C@@H](CC(=O)N1CCCC[C@@H]1C)C(=O)N[C@@H](C)c1nc2c(F)cccc2[nH]1 [CF-503225],16.2 µM and 16.9 µM,97 nM and 118 nM,
C[C@H]1CCCCN1C(=O)C[C@H](NC(=O)CCC(C)(C)C)C(=O)NCc1nc2ccccc2[nH]1 [CF-503191],10.3 µM,,456 nM
CC(C)CCC(=O)N[C@@H](CC(=O)N1CCOC[C@@H]1C)C(=O)N[C@@H](C)c1nc(-c2ccc(F)cc2F)c[nH]1 [CF-503210],15.2 µM,,407 nM
CC(C)CCC(=O)N[C@@H](CC(=O)N(C)C(C)C)C(=O)N[C@@H](C)c1ncc(-c2ccc(F)cc2F)[nH]1 [CF-503200],14.9 µM,919 nM,
CC(C)CCC(=O)N[C@@H](CC(=O)N1CCCC[C@@H]1C(F)(F)F)C(=O)N[C@@H](C)c1nc(-c2ccc(F)cc2F)c[nH]1 [CF-503212],4.87 µM,,346 nM
